Read-outs that look alike come from different tables or passages of the source.
Columns and labels:
CD19 CAR/4-1BB-T cells [1] = experiment: Serum cytokine levels in NSG/Raji xenograft model (multiplex cytokine analysis); assay type: in vivo, NSG mice
[2] = test system: CD8+ T cells expressing a ROR1 CAR with 4-1BB costimulatory domain; experiment: Bioluminescence-based cytotoxicity assay, RCH-ACV target cells; assay type: cell-based, human; details: 100 nM dasatinib; t=8 hours; >90% untreated
[3] = test system: NFAT inducible GFP reporter gene in CD19CAR/41BB T cells; experiment: NFAT-inducible GFP reporter expression in CAR-T cells in vivo; parameters: species or system NSG mice
From the text: The inventors prepared CD8^+ and CD4^+ CD19CAR/41BB T cells, which the inventors transduced to co-express an NFAT inducible GFP reporter gene.

[4] = cited from earlier work
[5] = test system: CD8+ T cells expressing a SLAMF7-CAR with 4-1BB costimulation; experiment: Bioluminescence-based cytotoxicity assay, K562/SLAMF7 target cells; assay type: cell-based, human
[6] = test system: NFAT/GFP reporter in CD4+ T cells co-expressing the CD19 CAR with 4-1BB costimulatory domain; experiment: NFAT/GFP reporter assay during sequential stimulation; assay type: cell-based, human
CD19 CAR/4-1BB-T cells [7] = experiment: Frequency of human T cells in bone marrow and peripheral blood by flow cytometry (Example 6); assay type: in vivo, NSG mice; details: CAR/treated
Experimental: The Institutional Animal Care and Use Committee of UKW approved all mouse experiments. NOD.Cg-Prkdc^scidIl2rg^tm1wjl/SzJ (NSG) mice (female, 6-8 week old) were purchased from Charles River (Sulzfeld, Germany). Mice were inoculated with 1×10^6 Raji/ffluc_GFP tumor cells via tail vein injection (i.v.). Mice were treated with 5×10^6 CAR-modified or control untransduced T-cells (CD4:CD8 ratio=1:1) via tail vein injection (i.v.). […] Tumor burden and distribution was analyzed by serial bioluminescence imaging on an IVIS Lumina imager (Perkin Elmer, Baesweiler, Germany): mice received i.p. injections of 0.3 mg/g luciferin and images were acquired 10 minutes after luciferin injection in small binning mode at an acquisition time of 1 s to 1 min to obtain unsaturated images. Data were analyzed using LivingImage Software (Caliper) and the average radiance (or photon flux) analyzed in regions of interest that encompassed the entire body of each individual mouse. Mice were sacrificed at the end of the experiment and human T cells in bone marrow, peripheral blood and spleen were analyzed by flow cytometry. The presence of (human) cytokines in serum was measured using multiplex cytokine analysis.
In brief, cohorts of n≥3 mice were inoculated with 1×10^6 firefly-luciferase_GFP-transduced Raji tumor cells on day 0, and on day 7 mice were treated with either CAR-transduced or control untransduced T cells. T-cell products consisted of equal proportions of CD4^+ and CD8^+ T cells (1:1 ratio), the total dose was 5×10^6 T cells.
The inventors analyzed the presence of human T cells in bone marrow (BM), spleen (SP) and peripheral blood (PB) of mice, at d1 and d3 after T cell injection using flow cytometry. Live human T cells were identified as 7AAD^−, […] and CD4^+.

[8] = test system: CAR-T cells co-expressing the iCasp suicide gene; experiment: Elimination of iCasp+ T cells; assay type: cell-based, human; details: 100 nM dasatinib and dimerizer (dasatinib+/dimerizer+); 24 hours
Experimental: After 24 hours, cells were labeled with anti-CD3 mAB and analyzed by flow cytometry for the presence of iCasp+ T cells.
After 24 hours, cells were labeled with anti-CD3 mAB and analyzed by flow cytometry for the presence of iCasp^+ T cells.

[9] = test system: CD8+ T cells expressing a CD19 CAR with 4-1BB costimulation; experiment: Bioluminescence-based cytotoxicity assay, K562/CD19 target cells; assay type: cell-based, human; details: dasatinib 100 nM added 1 hour after the start of the co-culture; t=10 hours; >90% without dasatinib
[10] = test system: CAR CD3 zeta at tyrosine 142; experiment: Quantitative Western blot of phosphorylation in CD8+ CD19 CAR/4-1BB T cells; assay type: cell-based, human; details: 100 nM dasatinib; co-culture with RCH-ACV
[11] = test system: CD8+ T cells expressing a CD19 CAR with 4-1BB costimulation; experiment: Cytokine production and secretion (IFN-γ, IL-2 ELISA), co-culture with K562/CD19; assay type: cell-based, human; details: 20 h
[12] = test system: activated CD19 CAR/4-1BB-T cells; assay type: in vivo, NSG mice
[13] = test system: PD-1 on CD19 CAR/4-1BB T cells; experiment: Surface expression of PD-1 on human CAR-T cells by flow cytometry, intermittent dasatinib; assay type: in vivo, NSG mice; details: intermittently treated (CAR/+)
Experimental: In brief, cohorts of 1-12 mice were inoculated with 1×10^6 firefly-luciferase_GFP-transduced Raji tumor cells on day 0. […] Serial bioluminescence imaging was performed to determine tumor burden on day 7, 9 and 15.
Based on the mouse model introduced in Example 11 (FIG. 21A), the inventors analyzed the surface expression of PD-1 on human CAR-T cells in bone marrow (BM), peripheral blood (PB) and spleen (SP) by flow cytometry.

[14] = d+3, dasatinib not in effect any more
[15] = dasatinib 100 nM added 2 hours after the start of the co-culture

Cc1nc(Nc2ncc(C(=O)Nc3c(C)cccc3Cl)s2)cc(N2CCN(CCO)CC2)n1 [dasatinib]
serum level of GM-CSF (CD19 CAR/4-1BB-T cells [1]; day +1, CAR-T cells and dasatinib (CAR/+)): 6.4 pg/mL
serum level of IFN-γ (CD19 CAR/4-1BB-T cells [1]; day +1, CAR/+): 13.4 pg/mL
serum level of IL-5 (CD19 CAR/4-1BB-T cells [1]; day +1, CAR/+): 21.4 pg/mL
serum level of TNF-α (CD19 CAR/4-1BB-T cells [1]; day +1, CAR/+): 0.04 pg/mL
serum level of GM-CSF (CD19 CAR/4-1BB-T cells [1]; day +3, dasatinib discontinued): 45.8 pg/mL
serum level of IFN-γ (CD19 CAR/4-1BB-T cells [1]; day +3, dasatinib discontinued): 411.8 pg/mL
serum level of IL-2 (CD19 CAR/4-1BB-T cells [1]; day +3, dasatinib discontinued): 0.2 pg/mL
serum level of IL-5 (CD19 CAR/4-1BB-T cells [1]; day +3, dasatinib discontinued): 331.2 pg/mL
serum level of IL-6 (CD19 CAR/4-1BB-T cells [1]; day +3, dasatinib discontinued): 0.9 pg/mL
serum level of TNF-α (CD19 CAR/4-1BB-T cells [1]; day +3, dasatinib discontinued): 0.9 pg/mL
specific lysis [2]: < 5%
mean fluorescence intensity (MFI) for GFP in bone marrow CAR-T cells ([3]; d+1, CAR/treated, 10687 CAR/untreated): 6967
reduction of GFP MFI, bone marrow CAR-T cells ([3]; d+1, treated vs untreated): 35%
reduction of GFP reporter gene expression, spleen CAR-T cells ([3]; d+1, treated vs untreated): 36%
difference in GFP between previously treated and untreated CAR-T cells, bone marrow [3, 14]: 10%
difference in GFP between previously treated and untreated CAR-T cells, spleen [3, 14]: 23%
dasatinib concentration in mouse serum ([4]; 5 mg/kg i.p., after each injection, based on known pharmacokinetics [23]): > 50 nM
window after each injection with dasatinib at that serum concentration ([4]; 5 mg/kg i.p., based on known pharmacokinetics [23]): ~6 h
total window with dasatinib present in mouse serum at that concentration ([4]; 10 mg/kg i.p. every 6 hours, 6 doses, 3 hours prior to 33 hours after T-cell transfer): 36 h
dasatinib concentration in mouse serum ([4]; 10 mg/kg i.p. every 6 hours, 6 doses, based on known pharmacokinetics [23]): at least 100 nM
specific lysis of target cells ([5]; dasatinib 20 nM, t=6 h, 63% by non-dasatinib treated): 21%
specific lysis of target cells ([5]; dasatinib 20 nM, t=12 h, 83% by non-dasatinib treated): 35%
specific lysis of target cells ([5]; dasatinib ≥40 nM, t=12 h, 83% by non-dasatinib treated): less than 10%
specific lysis of target cells ([5]; dasatinib ≥40 nM, up to t=6 h): less than 5.5%
GFP MFI ([6]; day 1, dasatinib present from the beginning): 317
GFP MFI ([6]; day 3, treated at 1 hour after assay set up, 2499 in untreated): 326
GFP MFI ([6]; day 3, treated from the beginning, 2499 in untreated): 108
frequency of human T cells, bone marrow (CD19 CAR/4-1BB-T cells [7]; day 1, 0.099% CAR/untreated): 0.087%
frequency of human T cells, peripheral blood (CD19 CAR/4-1BB-T cells [7]; day 1, […] CAR/untreated): 0.19%
frequency of CAR-T cells, bone marrow (CD19 CAR/4-1BB-T cells [7]; day +3, 0.56% CAR/untreated): 0.23%
frequency of CAR-T cells, peripheral blood (CD19 CAR/4-1BB-T cells [7]; day +3, 0.61% CAR/untreated): 0.36%
percentage of iCasp+ cells [8]: 36%
specific lysis [9]: 34%
phosphorylation compared to CAR-T cells co-cultured in the absence of dasatinib [10]: 12.86%
residual IFN-γ production (untreated CAR-T cells=100%) [11, 15]: 51%
residual IL-2 production (untreated CAR-T cells=100%) [11, 15]: 28%
residual specific IFN-γ production compared to non-dasatinib treated CAR-T cells ([11]; dasatinib ≥6.25 nM): less than 45%
residual specific IL-2 production compared to non-dasatinib treated CAR-T cells ([11]; dasatinib ≥6.25 nM): less than 60%
residual specific IL-2 production compared to non-dasatinib treated CAR-T cells ([11]; dasatinib ≥50 nM): less than 1%
serum level of IFN-γ ([12]; day 12, CAR(ON/OFF/ON), 157 pg/ml in CAR(ON)): 24 pg/mL
serum level of IFN-γ ([12]; day 14, dasatinib discontinued): 38 pg/mL
PD-1 mean fluorescence intensity (MFI) on CAR-T cells, peripheral blood ([13]; 4110 not exposed): 2775
PD-1 mean fluorescence intensity (MFI) on CAR-T cells, spleen ([13]; 4318 not exposed): 23652
PD-1 mean fluorescence intensity (MFI) on CAR-T cells, bone marrow ([13]; 9461 not exposed): 7025

— patent US20230310432A1 (JULIUS-MAXIMILIANS-UNIVERSITÄT WÜRZBURG, priority 2017, published 2023)
